This note sets out measurements from ChEMBL document CHEMBL1201862, “PubChem BioAssay data set” (2004).

Some test systems named below: SK-MEL-5; LOX IMVI; UACC-257; IGROV-1; HCT-116; U-251; UACC-62; K562; NCI-H460; EKVX; SR; CCRF-CEM; OVCAR-3; MOLT-4; KM12; SK-OV-3; SW-620; CAKI-1; HL-60; OVCAR-4.
Experiment in all cases: NCI anticancer screen, dose series, 48 h

SMILES strings stand for the structures.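 Five concentrations, 48 hours, 96-well plates. At the GI50, growth is halved.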 Active and inactive are the calls of the source. Rule as the data show it: active = GI50 up to about 1.1 µM and inactive = higher. Starred links: 1 amine or outer side, 2 acyl side, 3 side chain; linkers in the order of their positions; H or OH if unused. Positions of bridges follow the written chain, without caps; N, C: chain ends. Non-standard residues stand in square brackets, D forms with d. Residues, ends and D or L forms follow the SMILES beside them. ξ: configuration not given here. X11 = CCC(C)C(N[*:1])C(O)CC(=O)O[C@H](C(=O)C(C)C(=O)[*:2])C(C)C; X10 = O=C([C@@H]1CC(O)CN1[*:1])[*:2]; NMeY = CN[C@@H](Cc1ccc(O)cc1)C(=O)O; ξNMeL = CNC(CC(C)C)C(=O)O; ξT = CC(O)C(N)C(=O)O

Turning to `CC(=O)c1nccc2c1c(C)nc1ccccc12`, the GI50 is 60.8 µM (inactive) with SK-MEL-5; 57 µM (inactive) with LOX IMVI; > 100 µM (inactive) in the experiment on UACC-257; 70 µM (inactive) in the experiment with IGROV-1; 64.3 µM (inactive) with HCT-116; > 100 µM (inactive) in the experiment with U-251. Further, the GI50 with UACC-62 is 53.7 µM (inactive); in the experiment on K562, 71.3 µM (inactive); in the experiment on NCI-H460 it was 32.8 µM (inactive); in the experiment with EKVX, 52.2 µM (inactive); in the experiment on SR, 26.4 µM (inactive); in the experiment with CCRF-CEM, 16.4 µM (inactive). For the same compound, the GI50 in the experiment on OVCAR-3 is > 100 µM (inactive); in the experiment on MOLT-4 it was 44.6 µM (inactive); with KM12, 38.7 µM (inactive); with SK-OV-3 it was > 100 µM (inactive); in the experiment on SW-620 it was > 100 µM (inactive); in the experiment on CAKI-1, 30.3 µM (inactive). For the same compound, the GI50 with HL-60 was 67.8 µM (inactive); in the experiment on OVCAR-4, > 100 µM (inactive).

`CSC1=Nc2ccccc2N(C)c2c1c(-c1ccccc1)nn2C`: the GI50 in the experiment on SK-MEL-5 was 17.8 µM (inactive); in the experiment on LOX IMVI it was 29.1 µM (inactive); with UACC-257 it was 73.1 µM (inactive); in the experiment with IGROV-1, 42.9 µM (inactive); in the experiment with HCT-116 it was 22.1 µM (inactive); in the experiment on U-251, 31.4 µM (inactive). Also, the GI50 with UACC-62 was 35.2 µM (inactive); with K562 it was 17.8 µM (inactive); with NCI-H460 it was 21.9 µM (inactive); with EKVX, 65.5 µM (inactive); in the experiment on SR, 16.1 µM (inactive); in the experiment with CCRF-CEM, 22.1 µM (inactive). Also, the GI50 was 15.2 µM (inactive) with OVCAR-3; 8.99 µM (inactive) in the experiment with MOLT-4; 21.8 µM (inactive) with KM12; 37.3 µM (inactive) in the experiment on SK-OV-3; 40.6 µM (inactive) in the experiment on SW-620; > 100 µM (inactive) in the experiment with CAKI-1. Besides, the GI50 in the experiment with HL-60 was 15.2 µM (inactive); in the experiment on OVCAR-4 it was 43.1 µM (inactive).

As for `C[C@@H]1O[C@]2(O)[C@@H]3CCCN3S(=O)(=O)CCN2C1=O`, the GI50 with SK-MEL-5, in the experiment on LOX IMVI, in the experiment with UACC-257, in the experiment on IGROV-1, in the experiment on HCT-116 and with U-251 was > 100 µM (inactive) in each case. In addition, the GI50 in the experiment on UACC-62, with K562, in the experiment on NCI-H460, in the experiment on EKVX, in the experiment with SR and with CCRF-CEM was > 100 µM (inactive) in each case. The GI50 with OVCAR-3, in the experiment on MOLT-4, with KM12, in the experiment with SK-OV-3, in the experiment with SW-620 and in the experiment on CAKI-1 was > 100 µM (inactive) in each case. Further, the GI50 in the experiment on HL-60 and in the experiment on OVCAR-4 was > 100 µM (inactive) in each case.

Regarding `CCOC(=O)c1nc2ccccc2n(CC)c1=O`, the GI50 with SK-MEL-5, in the experiment on LOX IMVI, in the experiment with UACC-257, in the experiment with IGROV-1, with HCT-116 and in the experiment on U-251 was > 100 µM (inactive) throughout. For the same compound, the GI50 in the experiment with UACC-62 was > 100 µM (inactive); in the experiment on K562, > 100 µM (inactive); with NCI-H460, 81.7 µM (inactive); with EKVX, > 100 µM (inactive); in the experiment with SR it was > 100 µM (inactive); in the experiment on CCRF-CEM it was > 100 µM (inactive). Besides, the GI50 in the experiment on OVCAR-3, in the experiment with MOLT-4, in the experiment on KM12, in the experiment with SK-OV-3, in the experiment on SW-620 and with CAKI-1 was > 100 µM (inactive) in each case. The GI50 with HL-60 and in the experiment on OVCAR-4 was > 100 µM (inactive) throughout.

Regarding `CCC(C)C1NC(=O)C(NC(=O)C(CC(C)C)N(C)C(=O)[C@@H]2CC(O)CN2)C(C)OC(=O)[C@H](Cc2ccc(OC)cc2)N(C)C(=O)[C@@H]2CCCN2C(=O)[C@H](CC(C)C)NC(=O)C(C)C(=O)[C@H](C(C)C)OC(=O)CC1O` (stereo not given in full) (H-[X10][ξNMeL][ξT][X11]LP[NMeY](Me); ester 3-C), the GI50 is < 0.001 µM (active) in the experiment on SK-MEL-5; 0.00311 µM (active) with LOX IMVI; 0.0152 µM (active) in the experiment with UACC-257; 0.00272 µM (active) in the experiment with IGROV-1; 0.00143 µM (active) in the experiment on HCT-116; 0.00175 µM (active) in the experiment with U-251. The GI50 is < 0.001 µM (active) in the experiment on UACC-62; 0.00394 µM (active) in the experiment with K562; 0.00491 µM (active) in the experiment with NCI-H460; 0.01 µM (active) in the experiment with EKVX; 0.0148 µM (active) in the experiment on SR; 0.00233 µM (active) in the experiment with CCRF-CEM. In addition, the GI50 was 0.014 µM (active) in the experiment with OVCAR-3; 0.00161 µM (active) in the experiment on MOLT-4; < 0.001 µM (active) in the experiment with KM12; 0.00321 µM (active) with SK-OV-3; 0.0108 µM (active) with SW-620; 0.232 µM (active) in the experiment with CAKI-1. Further, the GI50 in the experiment with HL-60 was 0.0114 µM (active); in the experiment with OVCAR-4 it was 0.00594 µM (active).

In the case of `O=C1/C(=C/c2ccccc2)CCC/C1=C\c1ccccc1` [2,6-DIBENZYLIDENECYCLOHEXANONE], the GI50 is 13.2 µM (inactive) in the experiment with SK-MEL-5; 2.21 µM (inactive) in the experiment on LOX IMVI; 17 µM (inactive) in the experiment with UACC-257; 13 µM (inactive) in the experiment with IGROV-1; 1.71 µM (inactive) in the experiment on HCT-116; 5.82 µM (inactive) in the experiment with U-251. Moreover, the GI50 is 13.2 µM (inactive) in the experiment on UACC-62; 3.58 µM (inactive) with K562; 14.9 µM (inactive) in the experiment with NCI-H460; 18.3 µM (inactive) with EKVX; 9.71 µM (inactive) in the experiment on SR; 4.12 µM (inactive) in the experiment on CCRF-CEM. Moreover, the GI50 is 10.4 µM (inactive) with OVCAR-3; 3.95 µM (inactive) in the experiment on MOLT-4; 2.52 µM (inactive) in the experiment with KM12; 21.4 µM (inactive) in the experiment on SK-OV-3; 2.6 µM (inactive) with SW-620; 23.4 µM (inactive) in the experiment with CAKI-1. In addition, the GI50 is 2.8 µM (inactive) in the experiment on HL-60 and 14.9 µM (inactive) in the experiment with OVCAR-4.

Consider `C[C@]12CC[C@H](O[C@@H]3O[C@H](CO[C@@H]4O[C@H](CO)[C@@H](O)[C@H](O)[C@H]4O)[C@@H](O)[C@H](O)[C@H]3O)C[C@@H]1CC[C@@H]1[C@@H]2CC[C@]2(C)[C@@H](C3=CC(=O)OC3)CC[C@]12O` [UZARIN], for which the GI50 with SK-MEL-5 was 4.62 µM (inactive); in the experiment with LOX IMVI it was 22.1 µM (inactive); with UACC-257, 31.3 µM (inactive); in the experiment with IGROV-1, 10.7 µM (inactive); in the experiment with HCT-116 it was 9.06 µM (inactive); in the experiment on U-251, 39.7 µM (inactive). Besides, the GI50 in the experiment with UACC-62 was 33.7 µM (inactive); in the experiment on K562, 24.2 µM (inactive); in the experiment with NCI-H460, 7.29 µM (inactive); with EKVX, 17.7 µM (inactive); with SR, 6.25 µM (inactive); in the experiment with CCRF-CEM, 4.07 µM (inactive). Besides, the GI50 is 23.3 µM (inactive) in the experiment with OVCAR-3; 4.02 µM (inactive) in the experiment with MOLT-4; 47.8 µM (inactive) in the experiment with KM12; 35.3 µM (inactive) in the experiment on SK-OV-3; 31.6 µM (inactive) with SW-620; 13.7 µM (inactive) in the experiment on CAKI-1. Also, the GI50 is 20.2 µM (inactive) with HL-60 and 17.3 µM (inactive) in the experiment on OVCAR-4.
